Source: ChEMBL document CHEMBL4837206, “Synthesis and biological evaluation of novel isoxazole-piperazine hybrids as potential anti-cancer agents with inhibitory effect on liver cancer stem cells” (Eur J Med Chem, 2021)
Calls of active or inactive are those of the source. No cut-off for these calls is given here.

Assays:
MCF7 = test: Antiproliferative activity against human MCF7 cells assessed as reduction in cell viability measured after 72 hrs by SRB assay; assay type: functional, cell-based; settings: MCF7, 72 h
Huh-7 [1] = test: Antiproliferative activity against human Huh-7 cells assessed as reduction in cell viability measured after 72 hrs by SRB assay; assay type: functional, cell-based; settings: Huh-7, 72 h
Mahlavu [2] = test: Antiproliferative activity against human Mahlavu cells assessed as reduction in cell viability measured after 72 hrs by SRB assay; assay type: functional, cell-based
Huh-7 [3] = test: Inhibition of cell stemness in human Huh-7 cells assessed as CD133+/EpCAM+ expression at 10 uM measured after 72 hrs by flow cytometry analysis (reference value: 29.92%); assay type: functional; design: scale not given: the % may be the effect or the level left
Huh-7 [4] = test: Inhibition of cell stemness in human Huh-7 cells assessed as reduction in size of tumor spheres at 10 uM incubated for 72 hrs followed by incubation in sphere formation medium for 7 days by microscopic analysis; assay type: functional, cell-based; settings: time 10.0 day
Huh-7 [5] = test: Inhibition of cell stemness in human Huh-7 cells assessed as reduction in tumor spheres count at 10 uM incubated for 72 hrs followed by incubation in sphere formation medium for 7 days by microscopic analysis; assay type: functional, cell-based; settings: time 10.0 day
Huh-7 [6] = test: Inhibition of cell stemness in human Huh-7 cells assessed as reduction in size of tumor spheres at 10 uM incubated for 72 hrs followed by incubation in sphere formation medium for 14 days by microscopic analysis; assay type: functional, cell-based; settings: time 17.0 day
[7] = Upregulation of NANOG mRNA expression in human Mahlavu cells at 10 uM incubated for 72 hrs by RT-qPCR analysis relative to control; assay type: functional
Huh-7 [8] = test: Upregulation of NANOG mRNA expression in human Huh-7 cells at 10 uM incubated for 72 hrs by RT-qPCR analysis; assay type: functional, cell-based
Mahlavu [9] = test: Upregulation of OCT4 mRNA expression in human Mahlavu cells at 10 uM incubated for 72 hrs by RT-qPCR analysis; assay type: functional, cell-based
Huh-7 [10] = test: Upregulation of OCT4 mRNA expression in human Huh-7 cells at 10 uM incubated for 72 hrs by RT-qPCR analysis; assay type: functional, cell-based
Mahlavu [11] = test: Upregulation of OCT4 level in human Mahlavu cells at 10 uM measured after 72 hrs by flow cytometry analysis; assay type: functional, cell-based

| Compound | IC50 (MCF7) | IC50 (Huh-7 [1]) | IC50 (Mahlavu [2]) | also measured |
| --- | --- | --- | --- | --- |
| COc1cc(COc2ccc(-c3cc(CN4CCN(Cc5ccc(C(F)(F)F)cc5)CC4)no3)cc2)cc(OC)c1 | 100 nM | 1500 nM | 4300 nM |  |
| Cc1cccc(COc2ccc(-c3cc(CN4CCN(Cc5ccc(C(F)(F)F)cc5)CC4)no3)cc2)c1 | 4000 nM | 5000 nM | 2500 nM |  |
| Cc1ccccc1COc1ccc(-c2cc(CN3CCN(Cc4ccc(C(F)(F)F)cc4)CC3)no2)cc1 | 3700 nM | 1200 nM | 6800 nM |  |
| COc1ccc(COc2ccc(-c3cc(CN4CCN(Cc5ccc(C(F)(F)F)cc5)CC4)no3)cc2)cc1 | 1300 nM | 3200 nM | 4900 nM |  |
| N#Cc1cccc(COc2ccc(-c3cc(CN4CCN(c5ccc(C(F)(F)F)cc5)CC4)no3)cc2)c1 | 2000 nM | 2200 nM | 2700 nM |  |
| Fc1cccc(COc2ccc(-c3cc(CN4CCN(Cc5ccc(C(F)(F)F)cc5)CC4)no3)cc2)c1 | 2500 nM | 1300 nM | 2900 nM |  |
| N#Cc1cccc(COc2ccc(-c3cc(CN4CCN(Cc5ccccc5F)CC4)no3)cc2)c1 | 1400 nM | 2400 nM | 2300 nM |  |
| COc1ccccc1COc1ccc(-c2cc(CN3CCN(Cc4ccc(C(F)(F)F)cc4)CC3)no2)cc1 | 300 nM | 900 nM | 3900 nM |  |
| N#Cc1cccc(COc2ccc(-c3cc(CN4CCN(c5ccc(F)cc5)CC4)no3)cc2)c1 | 2400 nM | 1500 nM | 2200 nM |  |
| Cc1ccc(COc2ccc(-c3cc(CN4CCN(Cc5ccc(C(F)(F)F)cc5)CC4)no3)cc2)cc1 | 1200 nM | 1500 nM | 7500 nM |  |
| N#Cc1cccc(COc2ccc(-c3cc(CN4CCN(Cc5ccc(C(F)(F)F)cc5)CC4)no3)c(F)c2)c1 | 1200 nM | 400 nM | 400 nM |  |
| COc1cc(COc2ccc(-c3cc(CN4CCN(Cc5ccc(C(F)(F)F)cc5)CC4)no3)cc2)cc(OC)c1OC | 1800 nM | 500 nM | 5800 nM |  |
| N#Cc1cccc(COc2ccc(-c3cc(CN4CCN(Cc5ccc(F)cc5)CC4)no3)cc2)c1 | 1800 nM | 1600 nM | 1500 nM |  |
| FC(F)(F)c1ccc(CN2CCN(Cc3cc(-c4ccc(OCc5ccc(Cl)cc5)cc4)on3)CC2)cc1 | 6700 nM | 4000 nM | 3700 nM |  |
| N#Cc1ccccc1COc1ccc(-c2cc(CN3CCN(Cc4ccc(C(F)(F)F)cc4)CC3)no2)cc1 | 4000 nM | 5000 nM | 3500 nM |  |
| N#Cc1cccc(COc2ccc(-c3cc(CNC4CCN(Cc5ccccc5)CC4)no3)cc2F)c1 | 2700 nM | 2300 nM | 2700 nM |  |
| N#Cc1cccc(COc2ccc(-c3cc(CN4CCN(C(=O)c5ccco5)CC4)no3)cc2F)c1 | 1500 nM | 8100 nM | 3600 nM |  |
| CC(C)(C)OC(=O)N1CCC(NCc2cc(-c3ccc(OCc4cccc(C#N)c4)cc3)on2)CC1 | 2800 nM | 1500 nM | 3000 nM |  |
| CNC(=O)c1cc(Oc2ccc(NC(=O)Nc3ccc(Cl)c(C(F)(F)F)c3)cc2)ccn1 [SORAFENIB] |  |  |  | Activity (Huh-7 [3]): 36.16%; inhibition (Huh-7 [4]): Active; inhibition (Huh-7 [5]): inactive; inhibition (Huh-7 [6]): inactive; fold change (FC) [7]: 10; Activity (Huh-7 [8]): Active; Activity (Mahlavu [9]): Active; Activity (Huh-7 [10]): Active; Activity (Mahlavu [11]): Active |
| N#Cc1cccc(COc2ccc(-c3cc(CN4CCN(C(=O)C5CCCO5)CC4)no3)cc2)c1 (stereo not given) | 3800 nM | 2200 nM | 4100 nM |  |
| N#Cc1cccc(COc2ccc(-c3cc(CN4CCN(C(=O)C5CC5)CC4)no3)cc2)c1 | 7600 nM | 2800 nM | 4400 nM |  |
| N#Cc1cccc(COc2ccc(-c3cc(CN4CCN(CC5CC5)CC4)no3)cc2)c1 | 3500 nM | 2900 nM | 3200 nM |  |
| N#Cc1cccc(COc2ccc(-c3cc(CN4CCN(Cc5ccc(C(F)(F)F)cc5)CC4)no3)cc2)c1 | 800 nM | 100 nM | 10600 nM |  |
| FC(F)(F)c1ccc(CN2CCN(Cc3cc(-c4ccc(OCc5ccccc5Cl)cc4)on3)CC2)cc1 | 2800 nM | 1000 nM | 3200 nM |  |

Continued by falling IC50 (MCF7), values first:

| IC50 (MCF7) | IC50 (Huh-7 [1]) | Compound | IC50 (Mahlavu [2]) | also measured |
| --- | --- | --- | --- | --- |
| 8400 nM | 4200 nM | N#Cc1cccc(COc2ccc(-c3cc(CN4CCN(CC5CCCO5)CC4)no3)cc2)c1 (stereo not given) | 4800 nM |  |
| 7900 nM | 2000 nM | Fc1ccc(COc2ccc(-c3cc(CN4CCN(Cc5ccc(C(F)(F)F)cc5)CC4)no3)cc2)cc1 | 3100 nM |  |
| 3800 nM | 6100 nM | CC(C)(C)OC(=O)N1CCN(Cc2cc(-c3ccc(OCc4cccc(C#N)c4)cc3)on2)CC1 | 5600 nM |  |
| 3000 nM | 1500 nM | Fc1ccccc1COc1ccc(-c2cc(CN3CCN(Cc4ccc(C(F)(F)F)cc4)CC3)no2)cc1 | 3100 nM |  |
| 2500 nM | 2500 nM | N#Cc1cccc(COc2ccc(-c3cc(CNC4CCN(Cc5ccccc5)CC4)no3)cc2)c1 | 2100 nM |  |
| 2400 nM | 2700 nM | N#Cc1cccc(COc2ccc(-c3cc(CN4CCN(Cc5cccc(F)c5)CC4)no3)cc2)c1 | 2600 nM |  |
| 2000 nM | 800 nM | COc1cccc(COc2ccc(-c3cc(CN4CCN(Cc5ccc(C(F)(F)F)cc5)CC4)no3)cc2)c1 | 1400 nM |  |
| 1900 nM | 2000 nM | N#Cc1cccc(COc2ccc(-c3cc(CN4CCN(C(=O)c5ccco5)CC4)no3)cc2)c1 | 2200 nM |  |
| 1600 nM | 600 nM | Cc1cc(C)cc(COc2ccc(-c3cc(CN4CCN(Cc5ccc(C(F)(F)F)cc5)CC4)no3)cc2)c1 | 6000 nM |  |
| 1400 nM | 200 nM | FC(F)(F)c1ccc(CN2CCN(Cc3cc(-c4ccc(OCc5cccc(Cl)c5)cc4)on3)CC2)cc1 | 4100 nM |  |
| 1400 nM | 1700 nM | N#Cc1cccc(COc2ccc(-c3cc(CN4CCN(c5ccc(C(F)(F)F)cn5)CC4)no3)cc2)c1 | 1300 nM |  |
| 700 nM | 600 nM | Cc1cc(-c2cc(CN3CCN(Cc4ccc(C(F)(F)F)cc4)CC3)no2)ccc1OCc1cccc(C#N)c1 | 450 nM |  |
| 400 nM | 1500 nM | Cc1cc(OCc2cccc(C#N)c2)ccc1-c1cc(CN2CCN(Cc3ccc(C(F)(F)F)cc3)CC2)no1 | 500 nM |  |
| 100 nM | 1000 nM | N#Cc1ccc(COc2ccc(-c3cc(CN4CCN(Cc5ccc(C(F)(F)F)cc5)CC4)no3)cc2)cc1 | 4300 nM |  |
